We go through ten compounds from patent US7071231B2, “Naphthalene ureas as glucose uptake enhancers” (Telik, Inc., priority 1999, dated 2006).

Where a name gives a salt, the structure may show the parent alone. Where only a bound is given, the exact number is not on record here.

The first test has as its system 3T3 L1 fibroblasts. The test can be described thus: Glucose transport activity assay (14C-2-deoxy-D-glucose uptake). Format: cell-based. The settings on record: Mus musculus, 3T3-L1, read-out: Concentration (μM) to reach >150% activity of vehicle control. As to the method:
Glucose Transport Activity Assay.
Stimulation of the insulin receptor leads to the transport of glucose from the blood into cells, thus modulating blood glucose levels. 3T3 L1 fibroblasts (ATCC) were grown in Dulbecco's modified Eagle's medium (DMEM) with 10% fetal bovine serum (FBS). The cells were plated at a density of 3×10^4 cells/well in 24-well plates. Two days after confluence was reached, the cells were treated for 3 days with 0.5 mM isobutylmethylxanthine (IBMX), 1 μM dexamethasone, and 1.7 μM insulin. The cells were then transferred to DMEM with 10% FBS and supplemented with 1.7μM insulin for 2 more days. The cells were maintained in DMEM with 10% FBS for an additional 4 days. Finally the cells were serum-starved overnight in 0.1% bovine serum albumin (BSA) in DMEM.
The following day, the medium was replaced with 150 mM NaCl, 1.7 mM KCl, 0.9 mM CaCl2, K2HPO4 (pH 7.4) to which were added either the experimental compounds or their vehicle (DMSO). Insulin or its vehicle (0.01% BSA) was diluted in the assay buffer (containing test compound or vehicle, respectively) to final concentration of […]. After incubation for 30 min at 37° C., 5 μCi/ml ^14C-2-deoxy-D-glucose was added, and the incubation was continued for additional 30 min at 37° C. The cells were then washed 3 times with ice-cold PBS/20 mM glucose and lysed in 250 μl of lysis buffer (50 mM HEPES pH 7.6, 1% Triton X-100) for 30 min at room temperature. Radioactivity in the lysate was quantified by scintillation counting.
Once ^14C-2-deoxy-D-glucose is transported into the cell, it is not released. Glucose transport is, therefore, proportional to the amount of radioactivity in the lysate. The concentration of compound necessary to produce an increase in glucose transport to greater than 150% of the vehicle control (generally representing the sum of the standard deviation of the vehicle control plus the largest standard deviation of a test sample) was recorded as the EC (effective concentration). Shown in FIG. 3 is glucose uptake by cells at various concentrations when treated with Compound 13 and Compound 15.
For `O=C(Nc1ccc2ccc(S(=O)(=O)Nc3cccc([N+](=O)[O-])c3)cc2c1)Nc1ccc2ccc(S(=O)(=O)Nc3cccc([N+](=O)[O-])c3)cc2c1` [Compound 84, N-(7-{[(3-nitrophenyl)amino]sulfonyl}(2-naphthyl))[(7-{[(3-nitrophenyl)amino]sulfonyl}(2-naphthyl))amino]carboxamide], the EC (150% of vehicle control) amounted to 3.2 µM.
With `CN(c1cccc(S(=O)(=O)O)c1)S(=O)(=O)c1ccc2ccc(NC(=O)Nc3ccc4ccc(S(=O)(=O)N(C)c5cccc(S(=O)(=O)O)c5)cc4c3)cc2c1` [Compound 103, 3-{methyl[(7-{[(7-{[methyl(3-sulfophenyl)amino]sulfonyl}(2-naphthyl))amino]-carbonylamino}-(2-naphthyl))sulfonyl]amino}benzenesulfonic acid dipotassium salt], the EC (150% of vehicle control) came to 3.2 µM.

Staying with this test, now noted: Mus musculus; EC (effective concentration) for increase in glucose transport; 14C-2-deoxy-D-glucose, 3T3 L1 cells; read-out: Concentration (μM) to reach >150% activity of vehicle control.
On to `N#Cc1cccc(NS(=O)(=O)c2ccc3ccc(NC(=O)Nc4ccc5ccc(S(=O)(=O)Nc6cccc(C#N)c6)cc5c4)cc3c2)c1` [Compound 83, N-(7-{[(3-cyanophenyl)amino]sulfonyl}(2-naphthyl))[(7-{[(3-cyanophenyl)amino]sulfonyl}(2-naphthyl))amino]carboxamide], for which the EC (150% of vehicle control) is 3.2 µM.
The same measure, in the same setting: the same measure for `O=C(Nc1ccc2ccc(S(=O)(=O)Nc3ccc(Cl)c(CO)c3)cc2c1)Nc1ccc2ccc(S(=O)(=O)Nc3ccc(Cl)c(CO)c3)cc2c1` [Compound 85, N-[7-({[4-chloro-3-(hydroxymethyl)phenyl]amino}sulfonyl)(2-naphthyl)]{[7-({[4-chloro-3-(hydroxymethyl)phenyl]amino}sulfonyl)(2-naphthyl)]amino}carboxamide]: 32 µM; for `O=C(Nc1ccc2c(O)cc(S(=O)(=O)Nc3cccc(C(F)(F)F)c3)cc2c1)Nc1ccc2c(O)cc(S(=O)(=O)Nc3cccc(C(F)(F)F)c3)cc2c1` [Compound 88, N-[5-hydroxy-7-({[3-(trifluoromethyl)phenyl]amino}sulfonyl)(2-naphthyl)]{[5-hydroxy-7-({[3-(trifluoromethyl)phenyl]amino}sulfonyl)(2-naphthyl)]amino}carboxamide]: more than 32 µM.
Take `O=C(Nc1ccc2ccc(S(=O)(=O)O)cc2c1)Nc1ccc2ccc(S(=O)(=O)Nc3ccc(Cl)c(S(=O)(=O)O)c3)cc2c1` [Compound 90, 7-{[(7-{[(4-chloro-3-sulfophenyl)amino]sulfonyl}-2-naphthyl)amino]carbonylamino}naphthalene-2-sulfonic acid]: the EC (150% of vehicle control) was 3.2 µM.
Same read-out and setting: the same measure for `O=C(Nc1ccc2ccc(S(=O)(=O)Nc3ccc(Cl)c(S(=O)(=O)O)c3)cc2c1)Nc1ccc2ccc(S(=O)(=O)Nc3ccc(Cl)c(S(=O)(=O)O)c3)cc2c1` [Compound 91, 2-chloro-5-{[(7-{[(7-{[(4-chloro-3-sulfophenyl)amino]sulfonyl}(2-naphthyl))amino]carbonylamino}(2-naphthyl))sulfonyl]amino}benzenesulfonic acid]: 3.2 µM.
Regarding `O=C(Nc1ccc2ccc(S(=O)(=O)Nc3cccc(S(=O)(=O)O)c3)cc2c1)Nc1ccc2ccc(S(=O)(=O)Nc3cccc(S(=O)(=O)O)c3)cc2c1` [Compound 114, 3-{[(7-{[N-(7-{[(3-sulfophenyl)amino]sulfonyl}-2-naphthyl)carbamoyl]amino}-2-naphthyl)sulfonyl]amino}benzenesulfonic acid disodium salt], the EC (150% of vehicle control) was 3.2 µM.
On the same count and under the same terms, as for `O=C(Nc1ccc2ccc(C(=O)Nc3cccc(C(=O)O)c3)cc2c1)Nc1ccc2ccc(C(=O)Nc3cccc(C(=O)O)c3)cc2c1` [Compound 116, 3-({7-[({7-[N-(3-carboxyphenyl)carbamoyl]-2-naphthyl}amino)carbonylamino]-2-naphthyl}carbonylamino)benzoic acid], the figure is more than 32 µM; as for `O=C(Nc1ccc2ccc(NS(=O)(=O)c3cccc(C(=O)O)c3)cc2c1)Nc1ccc2ccc(NS(=O)(=O)c3cccc(C(=O)O)c3)cc2c1` [Compound 129, 3-{[(7-{[N-(7-{[(3-carboxyphenyl)sulfonyl]amino}-2-naphthyl)carbamoyl]amino}-2-naphthyl)amino]sulfonyl}benzoic acid], 32 µM.
